Data on one molecule can be found in article PMC12469672, “Effects on Oral Squamous Carcinoma Cell Lines and Their Mechanisms of Pyrazole N-Aryl Sulfonate: A Novel Class of Selective Cyclooxygenase-2 Inhibitors” (International Journal of Molecular Sciences, 2025).

The subject of experiment [1] is SAS cells. Nature of the experiment: Hoechst 33342 staining, SAS. The class given is cell-based. As to conditions: 24 h, working concentrations, vs NC. The method, then:
(§1) After 24 h drug treatment at the predefined working concentrations, CAL-27 and SAS cells were dyed with 300 μL Hoechst 33342 staining (C1022, Beyotime, China) in the dark at 37 °C for 10 min. Then, the residual Hoechst 33342 staining was washed 3 times with 1 × phosphate-buffered saline (PBS, G4250-500ML, Servicebio, China). The images were then immediately examined under an inverted fluorescence microscope (CX23, Olympus, Japan).

The subject of experiment [2] is CAL-27 cells. Nature of the experiment: Annexin V-FITC/PI flow cytometry apoptosis, CAL-27. The class given is cell-based. As to conditions: CAL-27, 24 h, vs control. The method, then:
(§2) After 24 h drug treatment at the predefined working concentrations, CAL-27 and SAS cells were trypsinized, centrifuged (200× g, 5 min, RT), and washed twice with 1 mL ice-cold PBS. Cell aliquots ((5–10) × 10^4 cells) were resuspended in 195 μL Annexin V-FITC binding buffer, followed by sequential addition of 5 μL Annexin V-FITC and 10 μL propidium iodide (PI) (BMS500FI-100, Thermo Fisher Scientific, Wien, Austria) with gentle mixing. After 10–20 min of incubation in darkness (20–25 °C) with intermittent resuspension (2–3 times), samples were placed on ice and analyzed within 1 h using a flow cytometer (CytExpert software [Version 2.4.0.28, Beckman Coulter, Brea, CA, USA]). Triplicate independent experiments were performed for statistical analysis.
Background: In flow cytometry, cells or beads pass a laser one at a time.

A further experiment deals with MMP2 mRNA in SAS cells. Nature of the experiment: RT-qPCR MMP2 mRNA, SAS. It is filed as cell-based. As to conditions: vs control. The method, then: (§3) Equal amounts of RNA were reverse transcribed into cDNA using the Reverse Transcription Kit (AG11705, Accurate Biology, Guangzhou, China) following the manufacturer’s instructions. Quantitative PCR was performed on a QIAGEN Rotor-GeneQ system (9001862, QIAGEN, Hilden, Germany) with SYBR Green Pro Taq HS Premix II (AG11702, Accurate Biology, China).
(§4) The PCR protocol consisted of initial denaturation at 95 °C for 30 s, followed by 40 cycles of 95 °C for 5 s and 60 °C for 30 s. All reactions were performed in triplicate, with melting curve analysis confirming amplification specificity. The expression of the target genes was normalized to GAPDH, and fold changes were calculated in the manner of the 2^−ΔΔCT .

Experiment [3] has as its system MMP2 mRNA in CAL-27 cells. Nature of the experiment: RT-qPCR MMP2 mRNA, CAL-27. The conditions noted are these: CAL-27, 24 h, vs control. The class given is cell-based. How it is done: as §3, §4
In general terms: Real-time PCR tracks product formation cycle by cycle.

In experiment [4] the test system is CAL-27 cells. Nature of the experiment: CCK-8 proliferation assay, CAL-27. The conditions noted are these: Homo sapiens. The class given is cell-based. The method, then: (§5) The OSCC cell lines CAL-27 (STCC12901P, Servicebio, Wuhan, China) and SAS (CC0706, Cellcook, Guangzhou, China) were cultured in Dulbecco Modified Eagle Medium F12 (DMEM/F12) (G4610-500ML, Servicebio, Wuhan, China) supplemented with 10% fetal bovine serum (FBS) (AB-FBS-DIA1050, ABW, Shanghai, China) and 100 U/mL penicillin-streptomycin-gentamicin solution (G4014-100ML, Servicebio, Wuhan, China). VERO cells were cultured in DMEM (G4524-500ML, Servicebio, Wuhan, China) supplemented with 10% FBS (AB-FBS-DIA1050, ABW, China) and 100 U/mL penicillin–streptomycin–gentamicin solution (G4014-100ML, Servicebio, Wuhan, China). […] were maintained at 37 °C in a humidified 5% CO2 incubator. For experiments, 1 × 10^6 cells were seeded per T-25 culture flask.
(§6) CAL-27, SAS, and VERO cells were seeded in 96-well plates at a density of 5000 cells per well. At specified time intervals, 10 μL of Cell Counting Kit-8 (CCK-8) reagent (K1018, Apexbio, Boston, MA, USA) was added to each well and incubated for 2 h. Absorbance at 450 nm was measured using a microplate reader (Infinite M200 Pro, Tecan Group, Männedorf, Switzerland).
For orientation: Formazan colour is commonly taken as a measure of viable cells.

In experiment [5] the test system is CAL-27 cells. Nature of the experiment: Hoechst 33342 staining, CAL-27. It is filed as cell-based. As to conditions: CAL-27, 24 h, working concentrations, vs NC. The method, then:
as §1

Another experiment relates to COX-2 mRNA in SAS cells. Nature of the experiment: RT-qPCR COX-2 mRNA, SAS. It is filed as cell-based. As to conditions: working concentrations, 24 h, vs control. How it is done:
as §3, §4

Another experiment has as its system VERO cells. Nature of the experiment: CCK-8 cytotoxicity assay, VERO. The class given is cell-based, African green monkey. As to conditions: Chlorocebus sabaeus; VERO, CCK-8, 24 h. How it is done: as §5, §6
The test system of experiment [6] is SAS cells. Nature of the experiment: Annexin V-FITC/PI flow cytometry apoptosis, SAS. The class given is cell-based. The conditions noted are these: 24 h, vs control. The method, then: as §2
Experiment [7] has as its system MMP9 mRNA in CAL-27 cells. Nature of the experiment: RT-qPCR MMP9 mRNA, CAL-27. The class given is cell-based. As to conditions: CAL-27, 24 h, vs control. How it is done: as §3, §4
Another experiment deals with COX-2 in SAS cells. Nature of the experiment: ELISA COX-2, SAS. The class given is cell-based. As to conditions: working concentrations, vs control (compounds also vs CXB). How it is done:
With the aim of determining COX-2 concentrations in OSCC cell lines after treatment at the predefined working concentrations, we used a specialized ELISA kit (F0564-A, FANKEW, Shanghai, China), following the manufacturer’s instructions. Briefly, 40 μL of the sample dilution and 10 μL of the sample (sample final dilution is 5-fold) were added to testing sample wells and incubated for 30 min at 37 °C. After that, discard the liquid and wash the plate using washing buffer. Repeat 5 times, drying by patting. Subsequently, samples were incubated with 50 μL of HRP-conjugate reagent in each well for 30 min at 37 °C. Wash 5 times, then add Chromogen Solution A and B and incubate for 10 min at 37 °C. Lastly, 50 μL of stop solution was added to each well to stop the reaction, and the sample absorbance was measured using a microplate reader at 450 nm after adding stop solution within 15 min.

Experiment [8] has as its system SAS cells. Nature of the experiment: CCK-8 proliferation assay, SAS. It is filed as cell-based. The method, then: as §5, §6

Where two headings read alike, the source gives them in different places.

As usually defined, the IC50 is the concentration at which inhibition is half-maximal. Turning to `Cc1ccc(-c2cc(C(F)(F)F)nn2-c2ccc(S(N)(=O)=O)cc2)cc1` [CXB, celecoxib, reference compound], the “apoptotic cells (Hoechst 33342, fluorescence microscopy)” value in the experiment on SAS cells [1] and with CAL-27 cells [5] was “significant increase” throughout. In addition, the “total apoptotic cell population (early and late apoptosis)” value in the experiment on CAL-27 cells [2] and in the experiment with SAS cells [6] was “comparable pro-apoptotic efficacy” throughout. Besides, the “MMP2 mRNA expression” value with MMP2 mRNA in SAS cells is reported as “markedly suppressed”; in [3], “even lower”. Moreover, the IC50 in the experiment on CAL-27 cells [4] (CAL-27, 24 h, read-out: IC50 (range), CAL-27, CCK-8, 24 h, given as a range) is 52.4 to 61.9 µM; in the experiment with CAL-27 cells [4] (CAL-27, CAL-27, CCK-8, read-out: IC50 CAL-27) it was 57 µM; in the experiment on VERO cells, 243 µM; with SAS cells [8] (24 h, read-out: IC50 (range)), 53.9 to 61.5 µM; with SAS cells [8] (SAS, CCK-8, read-out: IC50 SAS), 57.6 µM. Besides, in the experiment on COX-2 mRNA in SAS cells, the “COX-2 mRNA level” value is “marked upregulation”. Also, the “MMP9 mRNA expression” value in experiment [7] is “even lower”. For the same molecule, the “COX-2 level (ELISA)” value with COX-2 in SAS cells is reported as “no marked difference”.
